Source: PMC8318231, “Rate-of-Kill (RoK) assays to triage large compound sets for Chagas disease drug discovery: Application to GSK Chagas Box” (PLoS Neglected Tropical Diseases, 2021)

Key:
TcCYP51 = conditions: cited from earlier work; for CYP51 pIC50: formerly reported
[1] = test system: T. cruzi intracellular amastigotes in H9c2 cells; test: Rate-of-Kill (RoK) high-content imaging assay, amastigotes per cell (AM/CELL) and curve descriptors; assay type: cell-based, Trypanosoma cruzi; set-up: key to ME_24h / ME_48h / ME_72h: % reduction in parasite burden (cidal response); t50pct_MCC50 / t50pct_Cmax: unit not given here; conditions: for ME_24h: 24h; for ME_48h: 48h; for ME_72h: 72h; for t50%_Cmax / tlag_Cmax / t50pct_Cmax: at Cmax; for ME_24h (%): maximum effect at 24 h; for ME_24h (%) / ME_48h (%) / ME_72h (%): RoK assay; for ME_48h (%): maximum effect at 48 h; for ME_72h (%): maximum effect at 72 h
Outline: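 H9c2 cardiomyocytes infected with T. cruzi trypomastigotes (MOI 8, 18 h), then compounds tested at 5 μM single shot or 11-point 1/3 dilution from 50 μM. DRAQ5-stained nuclei imaged over a time course. Amastigotes per cell normalised to infected cells at 4 h (0%) and non-infected cells (100%).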

[2] = maximum percentage of parasite burden reduction reached by any concentration, 24 hours

| Compound | CYP51 pIC50 (TcCYP51) | ME_24h ([1]; figure 5) | ME_48h ([1]; figure 5) | ME_72h ([1]; figure 5) | MCC50 ([1]; RoK curve descriptor) [µM] | MCCE ([1]; RoK curve descriptor) [µM] | t50%_Cmax [1] [h] | tlag_Cmax [1] [h] | t50pct_Cmax ([1]; figure 5) | tlag_Cmax ([1]; figure 5) | t50%_MCC50 ([1]; at MCC50) [h] | tlag_MCC50 ([1]; at MCC50) [h] | t50pct_MCC50 ([1]; at MCC50, figure 5) | tlag_MCC50 ([1]; at MCC50, figure 5) | MCCE ([1]; figure 5) | MCC50 ([1]; figure 5, in µM) | ME_24h (%) [1] [%] | ME_48h (%) [1] [%] | ME_72h (%) [1] [%] | ME 24h (maximum effect at 24 hours, intracellular amastigotes) [1, 2] [%] | other results |
| --- | --- | --- | --- | --- | --- | --- | --- | --- | --- | --- | --- | --- | --- | --- | --- | --- | --- | --- | --- | --- | --- |
| O=C(Cn1ccnc1[N+](=O)[O-])NCc1ccccc1 [Benznidazole, benznidazole, reference compound] | < 4 | 49.8205 | 84.8832 | 90.745 | 31.2 | 3.9 | 35.0 | 5.5 | 34 | 4 | 46.2 | 8.6 | 46 | 7.333 | 4.172 | 33.802 | 49.8 | 84.9 | 90.7 |  | CYP51 mean (TcCYP51; TcCYP51 enzyme inhibition, mean, figure 1B, ref original boxes paper): 4.3; ME (maximum effect) in RoK assay (in words) [1]: higher ME values close to 100%; tlag (in words) [1]: short t-lag values; MCCE (Minimal Compound Concentration with Effect) ([1]; Fig 2C, average, lowest concentration that decreases AUC of AM/CELL versus time by at least 50% vs infected control, listed as BNZ): 3.9 µM; MCC50 (Minimal Cidal Concentration 50%) ([1]; Fig 2C, average, lowest concentration that reduces 50% of the parasite load measured at zero time, listed as BNZ): 31.2 µM; t50pct_MCC50 (t50%_MCC50) ([1]; Fig 2C, average, time to reduce 50% of initial parasite load at MCC50, listed as BNZ): 46.2 h; AM/CELL NORM ([1]; Time 4, figure 4 A): 14.6109; AM/CELL NORM ([1]; Time 24, figure 4 A): 40.5448; AM/CELL NORM ([1]; Time 48, figure 4 A): 53.9104; AM/CELL NORM ([1]; Time 72, figure 4 A): 66.8038; Emax at 50 µM ([1]; Trypanosoma cruzi, H9c2, BNZ at 50 μM, 48 hours, read-out: maximum effect): 100%; Emax ([1]; Trypanosoma cruzi, H9c2, maximum percentage of parasite burden reduction reached by any concentration, 24 hours, read-out: ME 24h (maximum effect at 24 hours, intracellular amastigotes)): 49.2% |
| O[C@H]1CC[C@H](Nc2nccc(-c3sc(C4CCOCC4)nc3-c3ccc(F)c(F)c3)n2)CC1 [TCMDC-143387] | < 4 | -7.952 | -1.621 | 23.2073 |  | 0.07 |  | 24.0 | 72 | 24 |  |  | 72 | 72 | 0.06859 |  | -8.0 | -1.6 | 23.2 | -7.952 | AM/CELL NORM ([1]; Time 4, figure 4 A): 2.207; AM/CELL NORM ([1]; Time 24, figure 4 A): -7.952; AM/CELL NORM ([1]; Time 48, figure 4 A): -3.462; AM/CELL NORM ([1]; Time 72, figure 4 A): 23.2073; MCC50 ([1]; figure 5): 50 µM |
| Cn1cc(CN2CCN(c3ccc4c(c3)CCN(C(=O)[C@H]3C[C@@H]3c3ccccc3)CC4)CC2)cn1 [TCMDC-143537] | 4.8 | 33.1689 | 35.5175 | 52.5957 | 16.7 | 0.6 | 72.0 | 4.0 | 72 | 4 | 72.0 | 24.0 | 72 | 24 | 0.6173 | 16.6667 | 33.2 | 35.5 | 52.6 | 33.1689 | AM/CELL NORM ([1]; Time 4, sheet figure 4 A): 1.751; AM/CELL NORM ([1]; Time 24, sheet figure 4 A): 33.1689; AM/CELL NORM ([1]; Time 48, sheet figure 4 A): 30.0543; AM/CELL NORM ([1]; Time 72, sheet figure 4 A): 50.1418 |
| CN1CCCN(C(=O)c2ccc(N3CCCC3)cc2Cl)CC1 [TCMDC-143127] | < 4 | -63.1294 | 41.4777 | 77.6777 | 7.0 | 1.9 | 67.2 | 24.0 | 67.2 | 24 | 72.0 | 24.0 | 72 | 24 | 1.852 | 7.037 | -63.1 | 41.5 | 77.7 | -38.4049 | AM/CELL NORM ([1]; Time 4, sheet figure 4 A): 3.238; AM/CELL NORM ([1]; Time 24, sheet figure 4 A): -70.995; AM/CELL NORM ([1]; Time 48, sheet figure 4 A): 17.9659; AM/CELL NORM ([1]; Time 72, sheet figure 4 A): 59.5367 |
